A short description of series [1]: The drug is tested on WLS-086 corresponding to human gut metagenome with ENA study accession number: PRJEB37062 and ENA sample accession number: ERS12561752 for biotransformation under anaerobic condition. The drug concentrations were measured over 9 timepoints collected between 0 and 24 hours of incubation by liquid-chromatography-coupled mass spectrometry (LC–MS). The following applies: 2 µM.

The nature of series [2]: The drug is tested on Z-023 corresponding to metagenome with ENA study accession number: PRJEB37062 and ENA sample accession number: ERS12561822 for biotransformation under anaerobic condition. The drug concentrations were measured over 9 timepoints collected between 0 and 24 hours of incubation by liquid-chromatography-coupled mass spectrometry (LC–MS). The settings on record: 2 µM.

For series [3] the following is noted: human gut metagenome, 24 h, 2 µM.
For series [4] the following is noted: human gut metagenome, 24 h, 2 µM. This is another data set of the same source.
The nature of series [5]: The drug is tested on WLS-077 corresponding to human gut metagenome with ENA study accession number: PRJEB37062 and ENA sample accession number: ERS12561750 for biotransformation under anaerobic condition. The drug concentrations were measured over 9 timepoints collected between 0 and 24 hours of incubation by liquid-chromatography-coupled mass spectrometry (LC–MS). The settings on record: 2 µM.

For series [6] the following is noted: human gut metagenome, 24 h, 2 µM. This is another data set of the same source.
A short description of series [7]: The drug is tested on WLS-006 corresponding to human gut metagenome with ENA study accession number: PRJEB37062 and ENA sample accession number: ERS12561741 for biotransformation under anaerobic condition. The drug concentrations were measured over 9 timepoints collected between 0 and 24 hours of incubation by liquid-chromatography-coupled mass spectrometry (LC–MS). The following applies: 2 µM.

The nature of series [8]: The drug is tested on Z-021 corresponding to metagenome with ENA study accession number: PRJEB37062 and ENA sample accession number: ERS12561820 for biotransformation under anaerobic condition. The drug concentrations were measured over 9 timepoints collected between 0 and 24 hours of incubation by liquid-chromatography-coupled mass spectrometry (LC–MS). The following applies: 2 µM.

Series [9] in a line: The drug is tested on WLS-220 corresponding to human gut metagenome with ENA study accession number: PRJEB37062 and ENA sample accession number: ERS12561769 for biotransformation under anaerobic condition. The drug concentrations were measured over 9 timepoints collected between 0 and 24 hours of incubation by liquid-chromatography-coupled mass spectrometry (LC–MS). The following applies: 2 µM.

For series [10] the following is noted: human gut metagenome, 24 h, 2 µM. The source holds these as a separate data set.
Series [11] is described as follows: The drug is tested on Z-008 corresponding to metagenome with ENA study accession number: PRJEB37062 and ENA sample accession number: ERS12561808 for biotransformation under anaerobic condition. The drug concentrations were measured over 9 timepoints collected between 0 and 24 hours of incubation by liquid-chromatography-coupled mass spectrometry (LC–MS). The following applies: 2 µM.

The conditions of series [12]: human gut metagenome, 24 h, 2 µM. This is another data set of the same source.
Series [13] in a line: The drug is tested on Z-016 corresponding to mouse gut metagenome with ENA study accession number: PRJEB37062 and ENA sample accession number: ERS12561815 for biotransformation under anaerobic condition. The drug concentrations were measured over 9 timepoints collected between 0 and 24 hours of incubation by liquid-chromatography-coupled mass spectrometry (LC–MS). The following applies: 2 µM.

The nature of series [14]: The drug is tested on Z-009 corresponding to pig gut metagenome with ENA study accession number: PRJEB37062 and ENA sample accession number: ERS12561809 for biotransformation under anaerobic condition. The drug concentrations were measured over 9 timepoints collected between 0 and 24 hours of incubation by liquid-chromatography-coupled mass spectrometry (LC–MS). The settings on record: 2 µM.

The nature of series [15]: The drug is tested on WLS-170 corresponding to human gut metagenome with ENA study accession number: PRJEB37062 and ENA sample accession number: ERS12561762 for biotransformation under anaerobic condition. The drug concentrations were measured over 9 timepoints collected between 0 and 24 hours of incubation by liquid-chromatography-coupled mass spectrometry (LC–MS). The following applies: 2 µM.

For series [16] the following is noted: human gut metagenome, 24 h, 2 µM. This is another data set of the same source.
The conditions of series [17]: human gut metagenome, 24 h, 2 µM. This is another data set of the same source.
The conditions of series [18]: human gut metagenome, 24 h, 2 µM. This is another data set of the same source.
Series [19] can be described thus: The drug is tested on WLS-370 corresponding to human gut metagenome with ENA study accession number: PRJEB37062 and ENA sample accession number: ERS12561793 for biotransformation under anaerobic condition. The drug concentrations were measured over 9 timepoints collected between 0 and 24 hours of incubation by liquid-chromatography-coupled mass spectrometry (LC–MS). The settings on record: 2 µM.

A short description of series [20]: The drug is tested on WLS-082 corresponding to human gut metagenome with ENA study accession number: PRJEB37062 and ENA sample accession number: ERS12561751 for biotransformation under anaerobic condition. The drug concentrations were measured over 9 timepoints collected between 0 and 24 hours of incubation by liquid-chromatography-coupled mass spectrometry (LC–MS). The following applies: 2 µM.

Where a SMILES comes first, the peptide text is derived from it. [ ]: non-standard residue; d: D form. pGlu = O=C1CC[C@@H](C(=O)O)N1; Thz = O=C(O)[C@@H]1CSCN1
Note: call rule not given here.

`CC(O)(CS(=O)(=O)c1ccc(F)cc1)C(=O)Nc1ccc(C#N)c(C(F)(F)F)c1` (stereo not given) [BICALUTAMIDE]: the “Bacterial Biotransformation” value in series [1], in series [2], in [3], in [4], in series [5] and in series [6] was “Compound NOT metabolized” throughout. For the same molecule, the “Bacterial Biotransformation” value in series [7], in series [8], in [9], in series [10], in series [11] and in series [12] was “Compound NOT metabolized” throughout. Besides, the “Bacterial Biotransformation” value in series [13], in series [14], in series [15], in [16], in series [17] and in series [18] was “Compound NOT metabolized” in each case. For the same molecule, the “Bacterial Biotransformation” value in series [19] is on record as “Compound NOT metabolized”.

With `CCCC1O[C@@H]2C[C@H]3[C@@H]4CCC5=CC(=O)C=C[C@]5(C)[C@H]4[C@@H](O)C[C@]3(C)[C@]2(C(=O)CO)O1` (stereo not given in full) [BUDESONIDE], the “Bacterial Biotransformation” value in series [1] is on record as “Compound metabolized”; in series [2] it was “Compound NOT metabolized”; in series [3], “Compound metabolized”; in series [4] it was “Compound metabolized”; in [5] it was “Compound metabolized”; in [6] it was “Compound metabolized”. Also, the “Bacterial Biotransformation” value in series [7], in series [8], in series [9], in [10], in [11] and in series [12] was “Compound metabolized” each time. Further, the “Bacterial Biotransformation” value in series [14], in series [15], in series [16], in [17], in series [18] and in series [19] was “Compound metabolized” each time.

Turning to `CCCCCCOC(=O)/N=C(/N)c1ccc(NCc2nc3cc(C(=O)N(CCC(=O)OCC)c4ccccn4)ccc3n2C)cc1.CS(=O)(=O)O` [DABIGATRAN ETEXILATE MESYLATE], the “Bacterial Biotransformation” value in [2], in [8], in series [10], in series [11], in series [13] and in series [14] was “Compound NOT metabolized” throughout. Besides, the “Bacterial Biotransformation” value in [17], in series [18] and in [19] was “Compound NOT metabolized” throughout.

On to `C[C@@H]1C[C@H]2[C@@H]3CCC4=CC(=O)C=C[C@]4(C)[C@@]3(F)[C@@H](O)C[C@]2(C)[C@@]1(O)C(=O)CO` [DEXAMETHASONE], for which the “Bacterial Biotransformation” value in series [1] was “Compound metabolized”; in [2], “Compound metabolized”; in series [3] it was “Compound NOT metabolized”; in series [4] it was “Compound NOT metabolized”; in series [5] it was “Compound NOT metabolized”; in series [6], “Compound NOT metabolized”. The “Bacterial Biotransformation” value is given as “Compound metabolized” in [8]; “Compound NOT metabolized” in series [9]; “Compound NOT metabolized” in series [10]; “Compound NOT metabolized” in series [11]; “Compound NOT metabolized” in [12]; “Compound NOT metabolized” in series [13]. Besides, the “Bacterial Biotransformation” value in [15], in [16], in series [17] and in series [18] was “Compound NOT metabolized” each time.

Turning to `c1ccc([C@H]2CN3CCSC3=N2)cc1` [LEVAMISOLE], the “Bacterial Biotransformation” value in [3] was “Compound NOT metabolized”; in series [4], “Compound metabolized”; in series [6], “Compound metabolized”; in [7] it was “Compound metabolized”; in series [9], “Compound metabolized”; in series [10], “Compound metabolized”. The “Bacterial Biotransformation” value is given as “Compound metabolized” in [12]; “Compound NOT metabolized” in series [13]; “Compound metabolized” in [15]; “Compound metabolized” in [16]; “Compound metabolized” in series [17]; “Compound metabolized” in series [18]. In addition, in [19], the “Bacterial Biotransformation” value is on record as “Compound metabolized”.

Turning to `C#C[C@]1(O)CC[C@H]2[C@@H]3CCC4=CC(=O)CC[C@@H]4[C@H]3CC[C@@]21CC` [LEVONORGESTREL], the “Bacterial Biotransformation” value in [1] is reported as “Compound metabolized”; in series [3] it was “Compound metabolized”; in [4], “Compound metabolized”; in series [5] it was “Compound metabolized”; in series [6], “Compound NOT metabolized”; in series [7] it was “Compound metabolized”. Moreover, the “Bacterial Biotransformation” value in series [9], in series [10], in [12], in series [20], in series [15] and in series [16] was “Compound metabolized” each time. The “Bacterial Biotransformation” value in [17] is recorded as “Compound NOT metabolized”; in series [19] it was “Compound metabolized”.

Regarding `O=C1CC[C@@H](C(=O)N2CSC[C@H]2C(=O)O)N1` [PIDOTIMOD] ([pGlu]-[Thz]-OH), the “Bacterial Biotransformation” value in series [1] was “Compound NOT metabolized”; in series [2], “Compound metabolized”; in series [3], “Compound NOT metabolized”; in series [4], “Compound NOT metabolized”; in [5], “Compound NOT metabolized”; in [6], “Compound NOT metabolized”. In addition, the “Bacterial Biotransformation” value in series [9], in series [10], in [12], in [13], in series [20] and in [15] was “Compound NOT metabolized” in each case. Besides, the “Bacterial Biotransformation” value in series [16], in series [17], in series [18] and in [19] was “Compound NOT metabolized” each time.

Values taken from ChEMBL document CHEMBL5724914, “Linking interpersonal differences in gut microbiota composition and drug biotransformation activity” (2024).
